Source: patent US9439424B2, “Synergistic weed control from applications of aminocyclopyrachlor and aminopyralid” (Dow AgroSciences LLC, priority 2012, dated 2016)
Several values for one entry are separate records, joined by “and”; a condition that tells them apart may be missing. Equal values may be shown once.

System: kochia or mock cypress (Kochia scoparia, KCHSC)
Assay: Field trial, post-emergence foliar application, weed control rating 0-100%
Type: in vivo
Source text: The (a) aminocyclopyrachlor or an agriculturally acceptable salt or ester thereof is mixed with or applied in combination with (b) aminopyralid or an agriculturally acceptable salt or ester thereof in an amount sufficient to induce a synergistic herbicidal effect. […] As described in the Herbicide Handbook of the Weed Science Society of America, Ninth Edition, 2007, p. 429, “‘synergism’ [is] an interaction of two or more factors such that the effect when combined is greater than the predicted effect based on the response to each factor applied separately.” Synergistic in the herbicide context can mean that the use of (a) and (b) as defined above results in an increased weed control effect compared to the weed control effects that are possible with the use of (a) or (b) alone. In some embodiments, the damage or injury to the undesired vegetation caused by the compositions and methods disclosed herein is evaluated using a scale from 0% to 100%, when compared with the untreated control vegetation, wherein 0% indicates no damage to the undesired vegetation and 100% indicates complete destruction of the undesired vegetation. […] 22 (1967)
In the Colby equation, the value E corresponds to the effect (plant damage or injury) that is to be expected if the activity of the individual compounds is additive. If the observed effect is higher than the value E calculated according to the Colby equation, then a synergistic effect is present according to the Colby equation.
Field trials were conducted with applications made to established grassland with naturally occurring weed populations. The target plants were treated with postemergence foliar applications when they were just emerged to the three-leaf stage and 0.6 centimeters (cm) (0.25 inches (in)) tall. All treatments were applied using a randomized complete block trial design, with 3 replications per treatment.
Treatments consisted of aminocyclopyrachlor in acid form and aminopyralid-triisopropanolammonium, each in water and applied alone or in combination. Spray solutions were prepared using an appropriate amount of dilution to form a 1.7 L aqueous spray solution with active ingredients in single and two way combinations. Formulated compounds were applied to the plant material with a backpack sprayer equipped with 8002 nozzles calibrated to deliver 13.5 gallon/acre (127 L/ha) at a spray height of 18-20 in (43-50 cm) above average plant canopy.
The treated plants were kochia or mock cypress (Kochia scoparia, KCHSC). The treated plots and control plots were rated blind at various intervals after application. Ratings were based on a scale of 0-100%, as discussed above, wherein 0% indicates no damage to the undesired vegetation and 100% indicates complete destruction of the undesired vegetation
Colby's equation was used to determine the herbicidal effects expected from the mixtures, as described above. The results were measured at 93 days and 183 days after the first application of the compositions. […] The herbicide tank mix combinations tested, application rates and ratios employed, plant species tested, and results are given below.

SMILES	Mean % weed control (aminocyclopyrachlor alone 140 g ae/ha, 93 days after application)	Mean % weed control (aminocyclopyrachlor alone 140 g ae/ha, 183 days after application) [%]	Mean % weed control (aminopyralid-triisopropanolammonium alone 70 g ae/ha, 93 days) [%]	Mean % weed control (aminopyralid-triisopropanolammonium alone 70 g ae/ha, 183 days) [%]	Mean % weed control (aminopyralid-triisopropanolammonium alone 120 g ae/ha, 93 days) [%]	Mean % weed control (aminopyralid-triisopropanolammonium alone 120 g ae/ha, 183 days) [%]
Nc1nc(C2CC2)nc(C(=O)O)c1Cl [Aminocyclopyrachlor, 6-amino-5-chloro-2-cyclopropylpyrimidine-4-carboxylic acid]	56.67% and 56.7%	45				
Nc1cc(Cl)nc(C(=O)O)c1Cl [Aminopyralid-triisopropanolammonium, aminopyralid-triisopropanolammonium]			30	16.67	20	13.3
